Assay results published in ChEMBL document CHEMBL2163318, “Phenylalanine derivatives as GPR142 agonists for the treatment of type II diabetes” (Bioorg Med Chem Lett, 2012).
Activity calls are given as the source filed them. No cut-off for these calls is given here.

Columns and labels:
Mus musculus [1] = test: Antidiabetic activity in B6D2F1 Harlan mouse assessed as decrease in blood glucose level at 0.30 mg/kg, sc administered 15 mins prior glucose challenge measured 7.5 mins post glucose challenge by glucometer analysis; format: functional; set-up: scale not given: the % may be the effect or the level left; settings: dose 0.3 mg/kg; route subcutaneous
[2] = AUC in rat at 2 mg/kg, po; format: ADME, organism-based; set-up: dose 2 mg/kg, route oral; settings: plasma
[3] = AUC in rat at 0.89 mg/kg, iv; format: ADME, organism-based; set-up: dose 0.89 mg/kg, route intravenous; settings: plasma
[4] = Half life in rat at 0.89 mg/kg, iv; format: ADME, organism-based; set-up: dose 0.89 mg/kg, route intravenous; settings: in vivo
Mus musculus [5] = test: Antidiabetic activity in B6D2F1 Harlan mouse assessed as decrease in blood glucose level at 30 mg/kg, sc administered 15 mins prior glucose challenge measured 7.5 mins post glucose challenge by glucometer analysis; format: functional; set-up: scale not given: the % may be the effect or the level left; settings: route subcutaneous
[6] = target: T1, Probable G-protein coupled receptor 142 (Mus musculus, UniProt Q7TQN9); test: Agonist activity at mouse GPR142 expressed in HEK293 cells by inositol phosphate accumulation assay; format: functional, cell-based
T1 sequence (Q7TQN9 whole entry): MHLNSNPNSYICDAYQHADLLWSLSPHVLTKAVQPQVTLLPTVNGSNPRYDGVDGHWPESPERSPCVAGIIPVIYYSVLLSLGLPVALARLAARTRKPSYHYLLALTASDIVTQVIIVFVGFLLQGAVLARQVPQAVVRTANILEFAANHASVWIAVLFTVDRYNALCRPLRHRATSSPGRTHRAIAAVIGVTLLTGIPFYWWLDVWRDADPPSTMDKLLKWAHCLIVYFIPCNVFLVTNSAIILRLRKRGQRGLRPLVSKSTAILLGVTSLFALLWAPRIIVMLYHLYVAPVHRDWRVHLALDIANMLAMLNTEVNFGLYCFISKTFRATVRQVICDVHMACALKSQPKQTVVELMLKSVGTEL

Mus musculus [7] = test: Antidiabetic activity in B6D2F1 Harlan mouse assessed as decrease in blood glucose level at 0.10 mg/kg, sc administered 15 mins prior glucose challenge measured 7.5 mins post glucose challenge by glucometer analysis; format: functional, organism-based; set-up: dose 0.1 mg/kg
Mus musculus [8] = test: Antidiabetic activity in B6D2F1 Harlan mouse assessed as increase in serum insulin level at 0.30 mg/kg, sc administered 15 mins prior glucose challenge measured 7.5 mins post glucose challenge by ELISA; format: functional; settings: dose 0.3 mg/kg; route subcutaneous
[9] = target: T2, Probable G-protein coupled receptor 142 (Mus musculus) (UniProt Q7TQN9); test: Agonist activity at mouse GPR142 expressed in HEK293 cells by inositol phosphate accumulation assay relative to control; format: functional, cell-based
T2 sequence (whole entry): T1 sequence (Q7TQN9 whole entry)

[10] = Volume of distribution at steady state in rat at 0.89 mg/kg, iv; format: ADME, organism-based; set-up: dose 0.89 mg/kg, route intravenous; settings: in vivo, read-out: Vdss
Mus musculus [11] = test: Antidiabetic activity in sc dosed B6D2F1 Harlan mouse assessed as increase in serum insulin level administered 15 mins prior glucose challenge measured 7.5 mins post glucose challenge by ELISA; format: functional, organism-based
Mus musculus [12] = test: Antidiabetic activity in B6D2F1 Harlan mouse assessed as increase in serum insulin level at 0.10 mg/kg, sc administered 15 mins prior glucose challenge measured 7.5 mins post glucose challenge by ELISA; format: functional, organism-based; set-up: dose 0.1 mg/kg
Mus musculus [13] = test: Antidiabetic activity in B6D2F1 Harlan mouse assessed as increase in serum insulin level at 3 mg/kg, sc administered 15 mins prior glucose challenge measured 7.5 mins post glucose challenge by ELISA; format: functional; settings: route subcutaneous
Mus musculus [14] = test: Antidiabetic activity in sc dosed B6D2F1 Harlan mouse assessed as decrease in blood glucose level administered 15 mins prior glucose challenge measured 7.5 mins post glucose challenge by glucometer analysis; format: functional, organism-based
Mus musculus [15] = test: Antidiabetic activity in B6D2F1 Harlan mouse assessed as increase in serum insulin level at 1 mg/kg, sc administered 15 mins prior glucose challenge measured 7.5 mins post glucose challenge by ELISA; format: functional; settings: route subcutaneous
Mus musculus [16] = test: Antidiabetic activity in B6D2F1 Harlan mouse assessed as increase in serum insulin level at 5 mg/kg, sc administered 15 mins prior glucose challenge measured 7.5 mins post glucose challenge by ELISA; format: functional; settings: route subcutaneous
Mus musculus [17] = test: Antidiabetic activity in B6D2F1 Harlan mouse assessed as decrease in blood glucose level at 5 mg/kg, sc administered 15 mins prior glucose challenge measured 7.5 mins post glucose challenge by glucometer analysis; format: functional; set-up: scale not given: the % may be the effect or the level left; settings: route subcutaneous
Mus musculus [18] = test: Antidiabetic activity in B6D2F1 Harlan mouse assessed as decrease in blood glucose level at 1 mg/kg, sc administered 15 mins prior glucose challenge measured 7.5 mins post glucose challenge by glucometer analysis; format: functional; set-up: scale not given: the % may be the effect or the level left; settings: route subcutaneous
Mus musculus [19] = test: Antidiabetic activity in B6D2F1 Harlan mouse assessed as decrease in blood glucose level at 3 mg/kg, sc administered 15 mins prior glucose challenge measured 7.5 mins post glucose challenge by glucometer analysis; format: functional; set-up: scale not given: the % may be the effect or the level left; settings: route subcutaneous
[20] = Metabolic stability of human microsomes assessed as compound turnover at 1 uM after 30 mins by LC-MS analysis; format: ADME, Microsome; settings: read-out: Drug metabolism
[21] = target: T3, Probable G-protein coupled receptor 142 (Homo sapiens, UniProt Q7Z601); test: Agonist activity at human GPR142 expressed in HEK293 cells assessed as inositol phosphate accumulation after 1 hr by scintillation counting; format: functional, cell-based
T3 sequence (Q7Z601 whole entry): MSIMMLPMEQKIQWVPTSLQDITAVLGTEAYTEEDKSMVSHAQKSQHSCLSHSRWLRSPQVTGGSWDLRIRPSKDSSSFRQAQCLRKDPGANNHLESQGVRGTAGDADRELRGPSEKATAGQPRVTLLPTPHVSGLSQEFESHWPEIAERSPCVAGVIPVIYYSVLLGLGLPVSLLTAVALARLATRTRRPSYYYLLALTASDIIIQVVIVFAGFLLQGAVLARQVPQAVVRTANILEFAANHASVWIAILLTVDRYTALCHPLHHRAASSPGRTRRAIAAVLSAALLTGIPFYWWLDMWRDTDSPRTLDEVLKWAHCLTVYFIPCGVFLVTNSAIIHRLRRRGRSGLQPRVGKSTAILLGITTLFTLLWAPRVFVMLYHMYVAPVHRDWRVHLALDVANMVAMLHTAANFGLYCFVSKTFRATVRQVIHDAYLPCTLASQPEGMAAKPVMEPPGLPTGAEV

[22] = Mean residence time in rat at 2 mg/kg, po; format: ADME, organism-based; set-up: dose 2 mg/kg, route oral; settings: in vivo
[23] = Metabolic stability of rat microsomes assessed as compound turnover at 1 uM after 30 mins by LC-MS analysis; format: ADME, Microsome; settings: read-out: Drug metabolism
[24] = Clearance in rat at 0.89 mg/kg, iv; format: ADME, organism-based; set-up: dose 0.89 mg/kg, route intravenous; settings: in vivo
Mus musculus [25] = test: Antidiabetic activity in B6D2F1 Harlan mouse assessed as increase in serum insulin level at 30 mg/kg, sc administered 15 mins prior glucose challenge measured 7.5 mins post glucose challenge by ELISA; format: functional; settings: route subcutaneous
[26] = Oral bioavailability in rat at 2 mg/kg; format: ADME, organism-based; settings: in vivo
[27] = target: T4, Probable G-protein coupled receptor 142 (Homo sapiens) (UniProt Q7Z601); test: Agonist activity at human GPR142 expressed in HEK293 cells assessed as inositol phosphate accumulation at 10 uM after 1 hr by scintillation counting; format: functional, cell-based
T4 sequence (whole entry): T3 sequence (Q7Z601 whole entry)

Q: Which Activity (Mus musculus [1]) does the source give for `O=C(Nc1cc(-c2ccncc2)c[nH]c1=O)[C@H](Cc1ccccc1)NC1(c2ccccn2)CC1` here?
A: The Activity was 0%.

Q: And the AUC [2]?
A: The AUC was 77 ng·h/mL.

Q: And the AUC [3]?
A: The AUC was 177 ng·h/mL.

Q: What about the half-life [4] of the same molecule?
A: The half-life was 12 min.

Q: And the Activity (Mus musculus [5])?
A: The Activity was 13%.

Q: What about the EC50 [6] of the same molecule?
A: Its EC50 is 1.8 nM.

Q: And the Activity (Mus musculus [7])?
A: Its Activity is “inactive”.

Q: And the Activity (Mus musculus [8])?
A: The Activity was 15%.

Q: What about the Emax [9] of the same molecule?
A: Its Emax is 81%.

Q: And the Vd [10]?
A: The Vd was 1.1 L/kg.

Q: And the Activity (Mus musculus [11])?
A: Its Activity is “Dose-dependent effect”.

Q: And the EC50 (Mus musculus [11])?
A: Its EC50 is 290 nM.

Q: What about the Activity (Mus musculus [12]) of the same molecule?
A: Its Activity is “inactive”.

Q: What about the Activity (Mus musculus [13]) of the same molecule?
A: The Activity was 58%.

Q: What about the Activity (Mus musculus [14]) of the same molecule?
A: The Activity was “Dose-dependent effect”.

Q: What about the EC50 (Mus musculus [14]) of the same molecule?
A: Its EC50 is 850 nM.

Q: What about the Activity (Mus musculus [15]) of the same molecule?
A: Its Activity is 41%.

Q: And the Activity (Mus musculus [16])?
A: Its Activity is 81%.

Q: And the Activity (Mus musculus [17])?
A: Its Activity is 15%.

Q: And the Activity (Mus musculus [18])?
A: The Activity was 3%.

Q: What about the Activity (Mus musculus [19]) of the same molecule?
A: The Activity was 4%.

Q: What about the metabolised at 0.5 h, 1 µM [20] of the same molecule?
A: The metabolised at 0.5 h, 1 µM was < 10%.

Q: What about the EC50 [21] of the same molecule?
A: Its EC50 is 54 nM.

Q: What about the MRT [22] of the same molecule?
A: The MRT was 107 min.

Q: And the metabolised at 0.5 h, 1 µM [23]?
A: Its metabolised at 0.5 h, 1 µM is 60%.

Q: And the clearance [24]?
A: Its clearance is 83.3 mL/min/kg.

Q: What about the Activity (Mus musculus [25]) of the same molecule?
A: The Activity was 98%.

Q: What about the bioavailability [26] of the same molecule?
A: The bioavailability was 20%.

Q: And the Emax [27]?
A: The Emax was 127%.
